Assay results from patent US6841532B2, “Peptides and their use to ameliorate cell death” (priority 1995, dated 2005).
Entries after “also recorded” stand apart in the source; their conditions may differ. Where no end group is shown, it is not given here.

How the values were obtained:
[1] = tested on: Cardiac myocytes from embryonic chick hearts; experiment: Amelioration of ammonium persulfate-induced cell death in cultured cardiac myocytes (Trypan blue exclusion); assay type: cell-based; details: 1 mM ammonium persulfate
Method: Cardiac myocytes from embryonic chick hearts were grown in culture using the procedures described in Rabkin, Exper. Cell. Res. 188:262-266, 1990. Briefly, white Leghorn eggs were incubated in an automatic incubator (March Rollex, Calif., USA) for 7 days at 37.8° C. and 87% humidity. Hearts were then isolated under sterile conditions from the 7-day chick embryo. Blood and connective tissue were removed under a dissecting microscope in a solution of balanced salts (DMS8) with the following composition (mM): NaCl 116, KCl 5.4, NaH2PO4 1 and dextrose 5.6. Disaggregation was carried out by 5-minute digestions in 0.005% trypsin (Gibco Laboratories, Burlington, Ontario), 0.1% BSA and 1×10^7 DNAse per mL, DMS8 (Worthington Biochemicals, Frederic, N.J., USA) at 37° C. After three digestions, the digests were diluted 1:5 in culture medium and the cells centrifuged for three minutes at 1000 g and plated.
The cultured cardiac myocytes were incubated with 1 mM ammonium persulfate for 2 hours at 37° C. to induce oxidative damage. Cell viability was assessed by Trypan blue exclusion. Six samples containing cells were then incubated with 0.0, 0.000375, 0.00375, 0.0375, 0.375 and 37.5 μM streptokinase (Hoechts-Roussel Pharmaceuticals), respectively, and 0.0, 0.000246, 0.00246, 0.0246, 0.246 and 24.6 μM plasminogen, respectively (see Table 1), for 1-2 hours at 37° C. and assessed by Trypan blue exclusion.
Control cell samples were treated with 1 mM ammonium persulfate in the absence of streptokinase (STK) and plasminogen under the same conditions.
The results are described in Table 1 in terms of the percent cell death induced by ammonium persulfate. The data represents the mean of six (6) duplicate determinations, none of which differed by more than 5%.
Each of the nineteen (19) resulting fractions was tested for the peptide's ability to ameliorate cell death according to the assay described in Example 1. The data in Table 2 represent the mean of duplicate determinations. None of the determinations differed by more than 5%.
Based on the sequences identified in Example 2, peptides were synthesized using a commercially available automated synthesizer (Applied Biosystems 430 A Peptide Synthesizer), purified by and tested according to the assay described in Example 1 for their ability to ameliorate cell death in cardiac myocytes. The sequences for these peptides were:
Table 3 presents the percentage of dead cells as measured by Trypan blue assessment as described in Example 1.

[2] = tested on: Spinal cord cells isolated from embryonic chicks; experiment: Amelioration of ammonium persulfate-induced cell death in spinal cord cells (trypan blue); assay type: cell-based, chick; details: 1 mM ammonium persulfate for 1 or 2 hours; 10 μg/ml or 20 μg/ml peptide; versus control
Method: Spinal cord cells isolated from embryonic chicks were grown in culture for 5-7 days. Chick spinal cord cells were cultured as described briefly as follows. Cell cultures were prepared from 7-day chick embryo. Ventral portions of spinal cord were dissected free of meninges and dorsal root ganglia and diced into small pieces in Dulbecco's phosphate-buffered saline (PBS). Tissue fragments were incubated in PBS with 0.25% trypsin and 20 μg/ml DNase for 30 min at 36° C. Trypsin was inactivated by the addition of horse serum and cells were dissociated by gentle pipetting.
Isolated cells were washed, resuspended in medium and plated onto plastic coverslips in petri dishes. The medium consisted of Eagle's minimum essential medium (MEM), 10% fetal bovine serum (FBS), 5 mg/ml D-glucose and 25 μg/ml gentamycin. Cells were grown in an incubator with 5% CO2/95% air at 37° C. and the medium was renewed twice a week. Cells were used for experiment after 14 days.
Both the experimental and control cultures were treated with 1 mM ammonium persulfate for 1 or 2 hours at 37° C. The experimental cultures were treated with either 10 μg/ml or 20 μg/ml of the 20 mer peptide (SEQ ID NO: 6) for the same length of time. The number of dead cells, assayed by trypan blue, in the experimental groups was compared to that in the control group.

M07E = experiment: Serum-deprivation-induced cell death, 3H-thymidine incorporation, M07E; assay type: cell-based, human; details: M07E starved 30 hours, 20 μg/ml, then washed, IL-3 for 22 hours; control 2,003 ± 468
Method: (§1) Cells in the latter group were washed free of the 20 mer (SEQ. ID NO. 6), given saturating concentrations of growth factor (5 ng/ml of human interleukin-3) and incubated for an additional 22 hours. After the 22 hours, 1 μCi of ^3H-thymidine (2 Ci/mmol) was added and, after 2 hours, the cellular contents were harvested onto filtermats. Then ^3H-thymidine incorporation was measured using an LKB Betaplate Harvester and liquid scintillation counter. Note the increased viability of cells treated with the 20 mer peptide (SEQ ID NO: 6).

TF-1 = experiment: Serum-deprivation-induced cell death, 3H-thymidine incorporation, TF-1; assay type: cell-based, human; details: TF-1 starved 30 hours, 20 μg/ml, then washed, IL-3 for 22 hours; control 14,728 ± 2,825
Method: as §1

[3] = reverse phase HPLC fractions of streptokinase incubated 1:1 with plasminogen

Substance | percentage of dead cells ([1]; Peptide Concentration 5 μM) [%] | percentage of dead cells ([1]; Peptide Concentration 20 μM) [%] | further results
EVTEEEETVPLKThE-AMIDE [Irrelevant #3, reference compound] | 79.5 | 81.1 | 
NFLRGKLKLYTGEACRTGDR [Irrelevant #1, irrelevant peptide utilized as negative control, reference compound] | 77.1 | 67.6 | 
RLILDSRVLERYLLEAKEAE [Irrelevant #2, irrelevant peptide utilized as negative control, reference compound] | 77.4 | 76.1 | 
SVDVEY [6 mer #1] | 51.9 | 36.8 | 
SVDVEYTQFTDFRGKLTKLL [20 mer] | 47.6 | 23.1 | survival of spinal cord cells (number of dead cells, trypan blue) [2]: dramatically enhanced cell survival; also recorded: almost completely prevented cell death; percentage of dead cells ([1]; Peptide Concentration 10 μM): 35.4%; percentage of dead cells ([1]; Peptide Concentration 15 μM): 31.6%; percentage of dead cells ([1]; Peptide Concentration 20 μM, listed as 20mer): ~20%; 3H-THYMIDINE COUNTS (COUNTS PER MINUTE) (M07E): 4,282 ± 212 COUNTS PER MINUTE; 3H-THYMIDINE COUNTS (COUNTS PER MINUTE) (TF-1): 32,701 ± 5,565 COUNTS PER MINUTE
SVDVEYTVQFTPLNPDDD [18 mer] |  | 54.4 | 
SVDVEYTVQFTPLNPDDDFRP [fraction 13] |  |  | Cell Death (%) [1, 3]: 39%
Streptokinase [reference compound] |  |  | Cell Death (%) ([1]; 0.000375 μM streptokinase with 0.000246 μM plasminogen, control 81): 50%; Cell Death (%) ([1]; 0.00375 μM streptokinase with 0.00246 μM plasminogen, control 81): 37%; Cell Death (%) ([1]; 0.0375 μM streptokinase with 0.0246 μM plasminogen, control 81): 29%; Cell Death (%) ([1]; 0.375 μM streptokinase with 0.246 μM plasminogen, control 81): 25%; Cell Death (%) ([1]; 37.5 μM streptokinase with 24.6 μM plasminogen, control 81): 16%
YVDVDT [6 mer #2] | 37.0 | 25.4 | 
YVDVDTNELLK [11 mer] | 38.6 |  | 
YVDVDTNELLKSEQLLTASE [fraction 12] |  |  | Cell Death (%) [1, 3]: 29%
